Where a name gives a salt, the structure may show the parent alone.
Key:
[1] = tested on: caspase 3; test: Induction of caspase activity in vivo (DEVDase activity in tumour lysates, RS4;11 xenograft); design: species or system mice (SCID strain); conditions: oral treatment 50 mg/kg, RS4;11 xenograft in SCID mice, 16 hours after treatment; for fold induction at 50 mg/kg: Mus musculus, read-out: Activation factor (versus control), DEVDase activity in the tumours
Protocol: The ability of the compounds of the invention to activate caspase 3 is evaluated in a xenograft model of RS4;11 leukaemia cells.
1×10^7 RS4;11 cells are grafted sub-cutaneously into immunosuppressed mice (SCID strain). 25 to 30 days after the graft, the animals are treated orally with the various compounds. Sixteen hours after treatment, the tumour masses are recovered and lysed, and the caspase 3 activity is measured in the tumour lysates.
This enzymatic measurement is carried out by assaying the appearance of a fluorigenic cleavage product (DEVDase activity, Promega). It is expressed in the form of an activation factor corresponding to the ratio between the two caspase activities: the activity for the treated mice divided by the activity for the control mice.

[2] = molecular target: Bcl-2 protein (Homo sapiens (Human), UniProt P10415); test: Inhibition of Bcl-2 by the fluorescence polarisation technique; assay type: binding; conditions: Bcl-2 inhibition, fluorescence polarisation test; read-out: IC50 (nM) Bcl-2 FP
Protocol: The fluorescence polarisation tests were carried out on microplates (384 wells). […] After incubation for 2 hours, the fluorescence polarisation is measured.

[3] = tested on: RS4;11 leukaemia tumour line; test: In vitro cytotoxicity (Microculture Tetrazolium Assay, 48 hours); assay type: cell-based; conditions: cytotoxicity for RS4;11 cells, MTT
Protocol: The cytotoxicity studies were carried out on the RS4;11 leukaemia tumour line.
The cells are distributed onto microplates and exposed to the test compounds for 48 hours.

Sequence of Bcl-2 protein (P10415 whole entry): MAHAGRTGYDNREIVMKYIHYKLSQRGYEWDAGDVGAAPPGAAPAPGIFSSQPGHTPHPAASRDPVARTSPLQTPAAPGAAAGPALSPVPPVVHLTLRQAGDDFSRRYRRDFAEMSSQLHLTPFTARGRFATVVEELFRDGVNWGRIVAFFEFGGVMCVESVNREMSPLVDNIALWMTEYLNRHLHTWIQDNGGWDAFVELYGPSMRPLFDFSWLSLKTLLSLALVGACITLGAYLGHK

Row | SMILES | IC50 [2] | IC50 ([3]; Homo sapiens) | IC50 [3] | other results
1 | O=C(c1cc(-c2cc3c(cc2C(=O)N2Cc4ccccc4C[C@H]2CN2CCOCC2)OCO3)n2c1CCCC2)N(c1ccc(O)cc1)c1ccc(Cl)cc1 [Example 3, N-(4-Chlorophenyl)-N-(4-hydroxyphenyl)-3-{6-[((3S)-3-(4-morpholinylmethyl)-3,4-dihydro-2(1H)-isoquinolinyl)carbonyl]-1,3-benzodioxol-5-yl}-5,6,7,8-tetrahydro-1-indolizine carboxamide hydrochloride] | 20 nM | 44.7 nM |  | fold induction at 50 mg/kg [1]: 5.7
2 | O=C(c1cc(-c2cc3c(cc2C(=O)N2Cc4ccccc4C[C@H]2CN2CCOCC2)OCO3)n2c1CCCC2)N(c1ccc(O)cc1)c1ccc(O)cc1 [Example 6, N,N-bis(4-Hydroxyphenyl)-3-{6-[((3S)-3-(4-morpholinylmethyl)-3,4-dihydro-2(1H)-isoquinolinyl)carbonyl]-1,3-benzodioxol-5-yl}-5,6,7,8-tetrahydra-1-indolizine carboxamide hydrochloride] |  |  | 30 nM | 
3 | CCOc1ccc(C(=O)N2Cc3ccccc3C[C@H]2CN2CCOCC2)c(-c2cc(C(=O)N(c3ccc(O)cc3)c3ccc4c(ccn4C)c3)c3n2CCCC3)c1 [Example 36, 3-{5-Ethoxy-2-[((3S)-3-(4-morpholinylmethyl)-3,4-dihydro-2(1H)-isoquinolinyl)carbonyl]phenyl}-N-(4-hydroxyphenyl)-N-(1-methyl-1H-indol-5-yl)-5,6,7,8-tetrahydro-1-indolizine carboxamide hydrochloride] |  | 135 nM |  | 
4 | CN1CCc2cc(N(C(=O)c3cc(-c4cc(Cl)ccc4C(=O)N4Cc5ccccc5C[C@H]4CN4CCOCC4)c4n3CCCC4)c3ccc(O)cc3)ccc21 [Example 43, 1-{5-Chloro-2-[((3S)-3-(4-morpholinylmethyl)-3,4-dihydro-2(1H)-isoquinolinyl)carbonyl]phenyl}-N-(4-hydroxyphenyl)-N-(1-methyl-2,3-dihydro-1H-indol-5-yl)-5,6,7,8-tetrahydro-3-indolizine carboxamide hydrochloride] | 110 nM |  |  | 
5 | O=C(c1cc(-c2cc3c(cc2C(=O)N2Cc4ccccc4C[C@H]2CN2CCOCC2)OCO3)n2ccccc12)N(c1ccccc1)c1ccc(O)cc1 [Example 58, N-(4-Hydroxyphenyl)-3-{6-[((3S)-3-(4-morpholinylmethyl)-3,4-dihydro-2(1H)-isoquinolinyl)carbonyl]-1,3-benzodioxol-5-yl}-N-phenyl-1-indolizine carboxamide hydrochloride] | 22 nM | 40.1 nM |  | fold induction at 50 mg/kg [1]: 23.3
6 | Cl.Cn1ccc2cc(N(C(=O)c3cc(-c4cc(Cl)ccc4C(=O)N4Cc5ccccc5C[C@H]4CN4CCOCC4)n4ccccc34)c3ccc(O)cc3)ccc21 [Example 67, 3-{5-Chloro-2-[((3S)-3-(4-morpholinylmethyl)-3,4-dihydro-2(1H)-isoquinolinyl)carhonyl]phenyl}-N-(4-hydroxyphenyl)-N-(1-methyl-1H-indol-5-yl)-1-indolizine carboxamide hydrochloride] |  |  | 17.7 nM | Activation factor (versus control), DEVDase activity in the tumours [1]: 18.9 (50 mg/kg)
7 | Cn1ccc2cc(N(C(=O)c3cc(-c4cc5c(cc4C(=O)N4Cc6ccccc6C[C@H]4CN4CCOCC4)OCO5)n4c3CN(C(=O)OC(C)(C)C)CC4)c3ccc(O)cc3)ccc21 [Example 72] | 220 nM |  | 270 nM | 
8 | Cn1ccc2ccc(N(C(=O)c3cc(-c4cc(Cl)ccc4C(=O)N4Cc5ccccc5C[C@H]4CN4CCOCC4)n4c3CCCCC4)c3ccc(O)cc3)cc21 [Example 83, 3-{5-Chloro-2-[((3S)-3-(4-morpholinylmethyl)-3,4-dihydro-2(1H)-isoquinolinyl)carhonyl]phenyl}-N-(4-hydroxyphenyl)-N-(1-methyl-1H-indol-6-yl)-6,7,8,9-tetrahydro-5H-pyrrolo[1,2-a]azepine-1-carboxamide hydrochloride] |  |  | 41.2 nM | 
9 | Cn1ccc2cc(N(C(=O)c3cc(-c4cc5c(cc4C(=O)N4Cc6ccccc6C[C@H]4CN4CCOCC4)OCO5)n4c3CCC4)c3ccc(O)cc3)ccc21 [Example 96, N-(4-Hydroxyphenyl)-N-(1-meth-1H-indol-5-yl)-5-(6-{[(3S)-3-(morpholin-4-ylmethyl)-3,4-dihydroisoquinolin-2(1H)-yl]carbonyl}-1,3-benzodioxol-5-yl)-2,3-dihydro-1H-pyrrolizine-7-carboxamide hydrochloride] |  |  | 58.8 nM | 
